The source of these data is patent US5635379A, “D-2-alkyl-tryptophan and peptides containing same” (Deghenghi; Romano, priority 1990, dated 1997).

Data set [1] in a line: Stability of D-Trp and D-2-methyl-Trp in 1% solutions, peak area by HPLC. The format is physicochemical. Conditions: pH 2.2 citrate buffer, dark, helium (FIG. 1) and pH 5.4 acetate buffer, oxygen, constant light (FIG. 2).
In data set [2] the test system is GH release. The data set can be described thus: GH release in pentobarbital-anesthetized rats, s.c. The format is in vivo, Sprague Dawley rats. As to the method: Male Sprague Dawley rats weighing 225-250 g were divided in groups of five animals each. Rats were anesthetized with Nembutal injected intraperiteonally at 50 mg/kg, fifteen minutes prior to the first blood withdrawal taken over heparin by cardiac puncture (for determination of basal GH).
Subcutaneous injections of either HEXARELIN or GHRP-6 were given immediately after the first blood collection, and additional blood samples were collected 15 and 40 minutes later.
Measurement of rat GH was performed by a standard double antibody radioimmunoassay with reagents supplied by the National Pituitary Agency and the National Institute of Arthritis, Diabetes, and Digestive and Kidney Diseases. The standards used were NIADDK-NIH-rGH-RP-2. Statistical data were obtained with the Student's t Test at a significance level of 5%.

Data set [3] can be described thus: Acute cardiovascular toxicity in the rat, single i.v. dose, mortality. The format is in vivo. Conditions: observed up to 4 hours. As to the method:
These two peptides were also tested for acute cardiovascular toxicity in the rat.
Dosages were calculated on the basis of the declared peptide content in each product, as specified below:
A single dose of HEXARELIN or GHRP-6 was administered to rats in different calendar dates in such a way that each group/dose should be treated in two subsequent days.
For each compound, appropriate amounts of solutions in 0.9% NaCl for injection were prepared just before treatment at the suitable concentrations. The solutions were sterilized by filtration (Millipore filter, pore size 0.22 μm). Owing to the type of the study (acute study) in which formulates were administered just after preparation, stability checks were not performed. Concentration checks were also not performed. The volume of solution injected was maintained constant at 1 ml/Kg.
The intravenous injections were done as a single dose in one vein of the tail with an appropriately gauged sterile, disposable, plastic syringe. The injection rate was about 0.1 ml/sec.
Periodical observations were made up to 4 hours after treatment. Abnormality and mortality were recorded. Body weight was recorded once during pre-trial and on the administration day to calculate the volumes to be injected.

The test system of data set [4] is GH release. The data set can be described thus: GH-releasing activity s.c. in male rats anesthetized with ketamine and xilazine. The format is in vivo, Sprague Dawley rats. Here is the method: (§1) Male Sprague Dawley rats (Charles River, Calco, Italy) of 2-3 months of age were used. Rats were housed at 22 +2° C., with lighting cycle of 14 h light: 10 h dark (lights on from 06.00 to 20.00 h), at least 10 days before starting the experiments. A standard dry diet and water were available ad libitum.
(§2) Between 09.00-10.00 h rats were anesthetized with ketamine (58 mg/kg, Inoketam, VIRBAC, Milano) and xilazine (12 mg/kg, Rompun, Bayer, Milano). Thirty minutes later, a blood sample ([…]) was withdrawn from the exposed jugular vein, peptides were injected intravenously or subcutaneously, and further blood samples were collected 10, 20 and 30 minutes later.
(§3) Medium and plasma GH was measured by radioimmunoassay using materials supplied by the NIADDK Bethesda, Md. Values were expressed in term of NIASSK-rat-GH-RP-2 standard (potency 2 IU/ml), as ng/ml of medium or plasma.
(§4) The minimum detectable value of rat was 1.0 ng/ml; intra-assay variability was 6%. To avoid inter-assay variation, samples from each experiment were assayed simultaneously.

For data set [5], the system named is GH release. Nature of the data set: GH-releasing activity i.v. in male rats anesthetized with ketamine and xilazine. The format is in vivo, Sprague Dawley rats. Here is the method:
as §1, §2, §3, §4

Data set [6] deals with pituitary cell monolayers. Nature of the data set: GH-releasing activity in pituitary cell culture (monolayers). The format is cell-based, Sprague Dawley rats. Conditions: for GH in medium: 2 hours incubation. Here is the method: as §1
Pituitary tissue used for cell dissociation included only the anterior lobe. Briefly, pituitary glands were collected in sterile F-10 medium and after cutting into small fragments incubated twice (30 minutes each) at 37° C. in F-10 medium containing 6% fetal calf serum and collagenase (2.5 mg/ml) (Boehringer, Mannheim GmbH, Germany). Fragments were then washed in Dulbecco's PBS, Ca^2+ and Mg^2+ free medium and mechanically dissociated. Single cell suspension was planted onto 24-well (2×10^5 cells/well) culture plates. The cells were incubated in F-10 medium supplemented with 10% horse serum, 4% fetal calf serum and gentamycin (25 μg/ml), in a humidified atmosphere of 5% CO2 and 95% air at 37° C.
After 3 days, the medium was removed and the cells washed twice with serum free F-10, then incubated with 1 ml of F-10 containing 0.1% BSA only, or with added various concentrations of synthetic peptides.
After incubation for 2 h at 37° C., media were collected and stored frozen at -20° C. until assayed for measurement of GH content.
as §3, §4

The subject of data set [7] is GH release. The data set can be described thus: GH response in conscious, freely-moving rats after antiserum pretreatment and i.v. peptide. The format is in vivo. Conditions: i.v. 25 μg/kg peptide, pooled over antiserum pretreatments. Here is the method: Sixty male rats were prepared with indwelling venous catheters under ether anesthesia three days before experimentation. On the day of experimentation, all animals were given an iv heparin injection (100 IU; 0630 h). At 0700 h, animals were treated with 0.5 ml of either normal serum (control-as), somatostatin antiserum (somatostatin-as; 0.25 ml+0.25 ml saline), growth hormone-releasing hormone antiserum (GHRH-as; 0.25 ml+0.25 ml saline), or both somatostatin antiserum and growth hormone-releasing hormone antiserum (0.25 ml somatostatin-as+0.25 ml GHRH-as). Blood sampling began […] after antiserum pretreatment, with blood samples collected every 20 minutes for three hours. After the 180 minute sample (1100 h), animals were treated iv with 25 μg/kg of either Hexarelin or GHRP-6. Blood samples were then collected at 5, 10, 15, 20 30, 40, and 60 minutes after peptide treatment. All samples were centrifuged immediately and the plasma frozen until assayed. The peak GH response to Hexarelin and GHRP-6 as well as the area under the response curves (AUCs) for the thirty minutes following peptide injection were calculated. Data were subjected to repeated measures analysis of variance and are expressed as mean ±SEM.

The subject of the next data set is plasma testosterone. The format is in vivo, Beagle dogs. The text has this: After an initial flare-up, plasma testosterone fell below castration levels after approximately 10 days, and was maintained for approximately 180 days.
Where [8] appears, read: PLGA implant rods, 20 or 25% loading (7 or 10 mg), subcutaneous.

As for `N[C@H](Cc1c[nH]c2ccccc12)C(=O)O` [D-Trp, D-Tryptophan, reference compound], in data set [1], the “time the compound is stable in solution (HPLC peak area)” value was “about 20 days”.
On to GHRP-6 [reference compound], for which the “POST-DRUG PLASMA GH” value in the data set with GH release [2] (s.c. 25 μg/kg, 0 min (basal)) turned out to be 41 ± 16 ng/mL; in the data set with GH release [2] (s.c. 25 μg/kg, 15 min), 222 ± 95 ng/mL; with GH release [2] (s.c. 25 μg/kg, 40 min) it was 110 ± 47 ng/mL; with GH release [2] (s.c. 50 μg/kg, 0 min (basal)), 57 ± 39 ng/mL; with GH release [2] (s.c. 50 μg/kg, 15 min), 262 ± 58 ng/mL; with GH release [2] (s.c. 50 μg/kg, 40 min), 97 ± 44 ng/mL. Further, the “Dead rats/Total N° of rats per group” value is 0/6 in data set [3] (single i.v. dose 2.5 mg/kg), 1/6 in data set [3] (single i.v. dose 5.0 mg/kg) and 2/6 in data set [3] (single i.v. dose 7.5 mg/kg). For the same compound, the “plasma GH” value in the data set with GH release [4] (s.c. 150 μg/kg, 10 min) is 63.1 ± 11.0 ng/mL; in the data set with GH release [4] (s.c. 150 μg/kg, 20 min), 110.4 ± 18.0 ng/mL; in the data set with GH release [4] (s.c. 150 μg/kg, 30 min), 77.2 ± 14.0 ng/mL; with GH release [4] (s.c. 150 μg/kg, time 0 min (before injection)), 20.0 ± 5.0 ng/mL; with GH release [4] (s.c. 300 μg/kg, 10 min), 63.9 ± 12.8 ng/mL; in the data set on GH release [4] (s.c. 300 μg/kg, 20 min) it was 123.4 ± 14.6 ng/mL. The “plasma GH” value came out at 87.7 ± 11.8 ng/mL in the data set on GH release [4] (s.c. 300 μg/kg, 30 min); 20.0 ± 6.0 ng/mL with GH release [4] (s.c. 300 μg/kg, time 0 min (before injection)); 93.1 ± 22.3 ng/mL in the data set on GH release [4] (s.c. 600 μg/kg, 10 min); 167.1 ± 14.7 ng/mL with GH release [4] (s.c. 600 μg/kg, 20 min); 107.8 ± 9.5 ng/mL in the data set with GH release [4] (s.c. 600 μg/kg, 30 min); 18.0 ± 4.0 ng/mL in the data set with GH release [4] (s.c. 600 μg/kg, time 0 min (before injection)). Also, the “plasma GH” value in the data set on GH release [5] (i.v. 150 μg/kg, 10 min) came out at 394.0 ± 31.0 ng/mL; in the data set with GH release [5] (i.v. 150 μg/kg, 20 min), 139.3 ± 10.2 ng/mL; with GH release [5] (i.v. 150 μg/kg, 30 min) it was 42.5 ± 4.5 ng/mL; with GH release [5] (i.v. 150 μg/kg, time 0 min (before injection)) it was 30.2 ± 7.8 ng/mL; in the data set with GH release [5] (i.v. 300 μg/kg, 10 min), 413.6 ± 21.5 ng/mL; in the data set with GH release [5] (i.v. 300 μg/kg, 20 min), 162.7 ± 22.1 ng/mL. Further, the “plasma GH” value in the data set with GH release [5] (i.v. 300 μg/kg, 30 min) turned out to be 38.2 ± 7.7 ng/mL; in the data set on GH release [5] (i.v. 300 μg/kg, time 0 min (before injection)), 21.9 ± 4.4 ng/mL; with GH release [5] (i.v. 600 μg/kg, 10 min), 542.0 ± 38.0 ng/mL; in the data set with GH release [5] (i.v. 600 μg/kg, 20 min), 195.5 ± 11.0 ng/mL; in the data set on GH release [5] (i.v. 600 μg/kg, time 0 min (before injection)), 21.2 ± 6.1 ng/mL. In addition, the GH in medium was found to be 510.0 ± 12.0 ng/well in data set [6] (10^-6 M), 526.5 ± 19.0 ng/well in data set [6] (10^-7 M) and 544.2 ± 23.9 ng/well in data set [6] (10^-8 M). For the same compound, the “GH secretion versus basal” value in data set [6] (10^-8 to 10^-6 M, two hours) is listed as “stimulation of GH secretion over basal secretion”. The “Mean GH” value in the data set with GH release [7] came out at 131 ± 13 ng/mL. Besides, the “Peak GH” value with GH release [7] amounted to 293 ± 41 ng/mL. Moreover, the “GH AUC” value in the data set on GH release [7] (thirty minutes following injection) is 4220 ± 665 ng/ml/30 min.
Take `Cc1[nH]c2ccccc2c1C[C@@H](N)C(=O)O` [Example 1, 2-methyl-D-tryptophan]: the “time the compound is stable in solution (HPLC peak area)” value in data set [1] is given as not below 60 days.
As to “Pyro-Glu-His-Ser-Tyr-D-2-alkyl-Trp-Leu-Arg-Pro-NHCH2 CH3 [Example 3]”, in the data set on plasma testosterone (setting [8]), the “time plasma testosterone was maintained below castration levels” value is “approximately 180 days” and the “time until plasma testosterone fell below castration levels” value is given as “approximately 10 days”. The “response to stimulation by i.v. administration of the peptide” value in the data set on plasma testosterone (day 145 after implant) is reported as “absence of response”. Also, in the data set on plasma testosterone (dog, in vivo, sc), the “clinical side effects” value is “No clinical side effects were observed”.
